We go through four compounds from paper PMC8913687, “Novel indolic AMPK modulators induce vasodilatation through activation of the AMPK–eNOS–NO pathway” (Scientific Reports, 2022).

Molecules are shown by their SMILES. Like-named read-outs stand apart in the source and are kept apart here.

What is called Ki is the dissociation constant of the complex between target and ligand, obtained from inhibition or displacement.

Assay [1] has as its target T1, AMPKα1β1γ1 (Homo sapiens, UniProt Q13131+Q9Y478).
T1 construct: gene PRKAA1; recombinant AMPK isoform α1β1γ1; with AMPK β1 (PRKAB1) and γ1 (PRKAG1)
The assay can be described thus: SPR at […]; also […] inhibition at […] in ADP-Glo kinase assay. Format: binding. Background: ADP-Glo turns the ADP formed in a reaction into a luminescent signal.

Assay [2] addresses T1, AMPKα1β1γ1. The assay is described as above. It counts as binding. This is another data set of the same source.
The target in assay [3] is T1, AMPKα1β1γ1. The assay can be described thus: ADP-Glo kinase assay with SAMS peptide, Lineweaver-Burk kinetics vs ATP; binding also shown by SPR ([…] RU at […]). It counts as biochemical.
Assay [4] addresses T1, AMPKα1β1γ1. Briefly: SPR, […] series and competition with […] ATP. It counts as binding.

T1 sequence (Q13131 whole entry, canonical isoform): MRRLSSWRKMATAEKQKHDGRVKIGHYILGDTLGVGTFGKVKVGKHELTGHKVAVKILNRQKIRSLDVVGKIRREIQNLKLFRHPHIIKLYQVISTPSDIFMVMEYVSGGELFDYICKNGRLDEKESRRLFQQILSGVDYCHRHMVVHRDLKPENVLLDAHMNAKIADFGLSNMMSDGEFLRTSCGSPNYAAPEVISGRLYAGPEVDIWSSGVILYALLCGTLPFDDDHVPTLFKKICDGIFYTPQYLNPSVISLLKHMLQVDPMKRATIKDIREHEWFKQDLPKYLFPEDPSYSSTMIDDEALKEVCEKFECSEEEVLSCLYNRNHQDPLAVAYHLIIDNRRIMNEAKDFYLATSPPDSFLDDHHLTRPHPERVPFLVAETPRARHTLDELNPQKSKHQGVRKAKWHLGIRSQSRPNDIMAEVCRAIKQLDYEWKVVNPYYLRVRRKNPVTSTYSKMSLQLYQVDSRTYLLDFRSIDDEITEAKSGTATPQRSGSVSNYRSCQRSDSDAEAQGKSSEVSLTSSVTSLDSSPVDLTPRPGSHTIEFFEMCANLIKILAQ
T1 sequence (Q9Y478 2-270): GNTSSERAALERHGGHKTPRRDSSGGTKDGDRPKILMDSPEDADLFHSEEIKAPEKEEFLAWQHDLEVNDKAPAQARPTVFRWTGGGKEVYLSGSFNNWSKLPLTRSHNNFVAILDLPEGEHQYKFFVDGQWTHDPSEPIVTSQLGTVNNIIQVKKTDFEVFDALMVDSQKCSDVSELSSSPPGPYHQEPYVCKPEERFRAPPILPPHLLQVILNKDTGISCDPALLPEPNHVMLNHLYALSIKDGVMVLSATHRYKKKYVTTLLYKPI
T1 sequence (P54619 whole entry partner, canonical isoform): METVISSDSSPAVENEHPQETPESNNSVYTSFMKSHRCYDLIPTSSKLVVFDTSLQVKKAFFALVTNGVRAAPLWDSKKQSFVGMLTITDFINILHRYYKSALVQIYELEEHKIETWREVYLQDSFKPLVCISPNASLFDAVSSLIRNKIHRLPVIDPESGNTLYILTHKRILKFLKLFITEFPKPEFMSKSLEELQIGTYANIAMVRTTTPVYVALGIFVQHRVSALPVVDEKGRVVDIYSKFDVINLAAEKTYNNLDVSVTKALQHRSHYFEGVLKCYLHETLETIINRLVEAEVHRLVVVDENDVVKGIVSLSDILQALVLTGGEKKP

As for `O=C(O)c1[nH]c2ccccc2c1-c1ccc(-c2ccccc2)cc1` [IND7], in assay [1], the “Binding 100 μM (RU)^b / AMPK α1:β1:γ1” value is given as 13.6 RU.
Turning to `O=C(O)c1[nH]c2ccccc2c1-c1ccc(Oc2ccccc2)cc1` [IND8], in assay [2], the “Binding 100 μM (RU)^b / AMPK α1:β1:γ1” value was 14.6 RU.
In assay [3], `O=C(O)c1[nH]c2ccccc2c1-c1ccc(OCc2ccccc2)cc1` [IND6, 3-(4-(Benzyloxy)phenyl)-1H-indole-2-carboxylic acid] displayed a Ki of 6.9 µM. This counts as single-digit micromolar.
For the compound `CNC(=O)c1ccccc1Oc1nc(Nc2cc(OC)c(OC)c(OC)c2)ncc1Br` [SBI-0206965], in assay [4], the “SPR, 10-100 μM series and competition with 200 μM ATP” value was “sensorgrams showed a progressive increase in the binding, which was much larger for SBI-0206965”.
